One assay deals with HCT116 MTAP null cells. Nature of the assay: HCT116 proliferation assay, MTAP null cells (CellTiter-Glo, 6 days). As to conditions: 144 h, read-out: Protif_ HCT116-MTAP null IC50. The format is cell-based. The method in brief:
(§1)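 Compound titrations (top dose 1 or 10 µM, 1:3 dilution, 8 or 9 concentrations) and a DMSO control were applied to cells cultured overnight beforehand in RPMI 1640 with 10% FBS at 37° C, 5% CO2; viability was scored from luminescence.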
(In general: Cellular ATP, detected with luciferase, serves as a proxy for viable cell number.)

The target in another assay is PRMT5/MEP50 (Homo sapiens, UniProt O14744). Nature of the assay: MTase-Glo methyl transferase assay, Method A (Histone H4 peptide, 1 µM MTA, 24 h pre-incubation). Type of assay: biochemical. Set-up: made in house. As to conditions: read-out: PRMT5 MTase Glo Ki (nM, Meth. A). The method in brief: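 Luminescent SAH detection (MTase-Glo) after a 2 h room-temperature methylation of 1 µM biotinylated H4 (1-21) peptide by 10 nM PRMT5/MEP50 with 5 µM SAM, in 50 mM Tris pH 8.0.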
Chain of PRMT5/MEP50 (O14744 whole entry): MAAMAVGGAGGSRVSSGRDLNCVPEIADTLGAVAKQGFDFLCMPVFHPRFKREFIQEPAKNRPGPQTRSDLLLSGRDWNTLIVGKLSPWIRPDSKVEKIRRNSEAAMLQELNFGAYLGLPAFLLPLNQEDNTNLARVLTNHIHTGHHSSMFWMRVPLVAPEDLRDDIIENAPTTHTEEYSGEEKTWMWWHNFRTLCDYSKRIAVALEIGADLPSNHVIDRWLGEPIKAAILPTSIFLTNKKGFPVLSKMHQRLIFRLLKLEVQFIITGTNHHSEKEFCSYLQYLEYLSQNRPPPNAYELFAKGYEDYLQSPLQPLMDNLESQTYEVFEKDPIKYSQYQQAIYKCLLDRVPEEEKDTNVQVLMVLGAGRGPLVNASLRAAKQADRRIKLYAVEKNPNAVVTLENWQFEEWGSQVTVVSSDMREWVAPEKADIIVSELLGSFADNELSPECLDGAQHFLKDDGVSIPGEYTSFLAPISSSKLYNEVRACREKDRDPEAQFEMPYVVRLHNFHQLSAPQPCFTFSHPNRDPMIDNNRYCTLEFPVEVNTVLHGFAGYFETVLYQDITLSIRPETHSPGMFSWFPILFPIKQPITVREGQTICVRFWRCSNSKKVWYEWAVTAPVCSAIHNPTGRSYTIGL
Chain of PRMT5/MEP50 (Q9BQA1 whole entry partner): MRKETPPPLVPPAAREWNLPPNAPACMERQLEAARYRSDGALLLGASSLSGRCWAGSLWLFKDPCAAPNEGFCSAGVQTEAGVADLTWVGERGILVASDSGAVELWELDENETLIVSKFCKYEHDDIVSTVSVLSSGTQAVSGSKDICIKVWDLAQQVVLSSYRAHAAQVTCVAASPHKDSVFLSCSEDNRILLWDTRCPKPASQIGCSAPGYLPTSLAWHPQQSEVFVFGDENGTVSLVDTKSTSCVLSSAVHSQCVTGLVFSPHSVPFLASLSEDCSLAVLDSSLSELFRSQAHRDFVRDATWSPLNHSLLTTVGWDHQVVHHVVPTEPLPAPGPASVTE

A further assay concerns HCT116 WT cells. Nature of the assay: HCT116 proliferation assay, WT cells (CellTiter-Glo, 6 days). As to conditions: Homo sapiens, HCT-116, 144 h, read-out: Prolif_HCT116-WT IC50. Type of assay: cell-based. In a few lines: as §1

IC50 and Ki data for 23 compounds are collected here from patent US20230159510A1, “NOVEL PRMT5 INHIBITORS” (AMGEN INC., priority 2020, published 2023).

Like-named read-outs stand apart in the source and are kept apart here.

As to `CCOc1ccc(CN(C(=O)c2cnc3nc(N)c(Br)cc3c2)[C@H](C)c2ncccn2)nn1` [Example 382, 7-amino-6-bromo-N-((6-ethoxy-3-pyridazinyl)methyl)-N-((1R)-1-(2-pyrimidinyl)ethyl)-1,8-naphthyridine-3-carboxamide], the concentration for half-maximal inhibition (IC50) in the assay with HCT116 MTAP null cells (HCT116-MTAP null) worked out at 278 nM; in the assay on HCT116 WT cells it was 9680 nM. Moreover, the Ki on PRMT5/MEP50 stood at 0.16 nM.

In the case of `Cc1cc2cc(C(=O)N(Cc3ccc(F)cn3)Cc3ccc(C(F)(F)F)cn3)ccc2nc1N` [Example 383, 2-amino-N-((5-fluoro-2-pyridinyl)methyl)-3-methyl-N-((5-(trifluoromethyl)-2-pyridinyl)methyl)-6-quinolinecarboxamide], the 50% inhibitory concentration (IC50) with HCT116 MTAP null cells (HCT116-MTAP null) stood at 434 nM; in the assay on HCT116 WT cells it was 5320 nM. For the same compound, at PRMT5/MEP50, the inhibition constant Ki came to 2.06 nM.

In the case of `Cc1cc2cc(C(=O)N(Cc3ccc(C(F)(F)F)cn3)Cc3ncc(F)cc3F)ccc2nc1N` [Example 384, 2-amino-N-((3,5-difluoro-2-pyridinyl)methyl)-3-methyl-N-((5-(trifluoromethyl)-2-pyridinyl)methyl)-6-quinolinecarboxamide], the IC50 in the assay on HCT116 MTAP null cells (HCT116-MTAP null) came to 177 nM; in the assay with HCT116 WT cells it was 5100 nM. Also, the Ki on PRMT5/MEP50 came to 0.01 nM.

Turning to `Cc1cc2cc(C(=O)N(Cc3ccc(C(F)(F)F)cn3)[C@H](C)c3ncccc3F)ccc2nc1N` [Example 385, 2-amino-N-((1R)-1-(3-fluoro-2-pyridinyl)ethyl)-3-methyl-N-((5-(trifluoromethyl)-2-pyridinyl)methyl)-6-quinolinecarboxamide], the IC50 with HCT116 MTAP null cells stood at 55 nM; in the assay with HCT116 WT cells, 1310 nM. The Ki on PRMT5/MEP50 came to 0.08 nM.

Consider `Cc1cc2cc(C(=O)N(Cc3ccc(C(F)(F)F)cn3)[C@@H](C)c3ncccc3F)ccc2nc1N` [Example 386, 2-amino-N-((1S)-1-(3-fluoro-2-pyridinyl)ethyl)-3-methyl-N-((5-(trifluoromethyl)-2-pyridinyl)methyl)-6-quinolinecarboxamide], for which the IC50 with HCT116 MTAP null cells was determined as 241 nM; in the assay with HCT116 WT cells, 3830 nM. The inhibition constant (Ki) on PRMT5/MEP50 came to 3.46 nM.

`Cc1cc2cc(C(=O)N(Cc3ncccc3F)Cc3ncc(F)cc3F)ccc2nc1N` [Example 387, 2-amino-N-((3,5-difluoro-2-pyridinyl)methyl)-N-((3-fluoro-2-pyridinyl)methyl)-3-methyl-6-quinolinecarboxamide]: the concentration for half-maximal inhibition (IC50) was 884 nM in the assay with HCT116 MTAP null cells (HCT116-MTAP null) and over 10000 nM with HCT116 WT cells. For the same compound, on PRMT5/MEP50, the Ki is 1.67 nM.

With `C[C@H](c1ncccc1F)N(Cc1ccc(C(F)(F)F)cn1)C(=O)c1cnc2nc(N)c(Br)cc2c1` [Example 388, 7-amino-6-bromo-N-((1R)-1-(3-fluoro-2-pyridinyl)ethyl)-N-((5-(trifluoromethyl)-2-pyridinyl)methyl)-1,8-naphthyridine-3-carboxamide], the figures for the 50% inhibitory concentration (IC50) in the assay on HCT116 MTAP null cells (HCT116-MTAP null) and with HCT116 WT cells were 137 nM and 4880 nM, respectively. Also, the inhibitory constant (Ki) at PRMT5/MEP50 stood at 0.15 nM.

In the case of `Cc1cc2cc(C(=O)N(Cc3ccc(C(F)(F)F)cn3)[C@H](C)c3ncccc3F)cnc2nc1N` [Example 389, 7-amino-N-((1R)-1-(3-fluoro-2-pyridinyl)ethyl)-6-methyl-N-((5-(trifluoromethyl)-2-pyridinyl)methyl)-1,8-naphthyridine-3-carboxamide], the 50% inhibitory concentration (IC50) in the assay with HCT116 MTAP null cells (HCT116-MTAP null) was 198 nM; in the assay with HCT116 WT cells, over 10000 nM. For the same compound, the Ki at PRMT5/MEP50 turned out to be 0.37 nM.

With `Cc1cc2cc(C(=O)N(Cc3ccc(C(F)(F)F)cn3)[C@@H]3CCCc4cccnc43)ccc2nc1N` [Example 390, 2-amino-3-methyl-N-((8R)-5,6,7,8-tetrahydro-8-quinolinyl)-N-((5-(trifluoromethyl)-2-pyridinyl)methyl)-6-quinolinecarboxamide], the IC50 was 23 nM with HCT116 MTAP null cells (HCT116-MTAP null) and 460 nM in the assay on HCT116 WT cells. On PRMT5/MEP50, the inhibition constant Ki came out at 0.25 nM.

Turning to `Cc1cc2cc(C(=O)N(Cc3ncc(C(F)(F)F)cc3F)[C@H](C)c3ncccc3F)ccc2nc1N` [Example 391, 2-amino-N-((1R)-1-(3-fluoro-2-pyridinyl)ethyl)-N-((3-fluoro-5-(trifluoromethyl)-2-pyridinyl)methyl)-3-methyl-6-quinolinecarboxamide], the IC50 with HCT116 MTAP null cells (HCT116-MTAP null) is 165 nM; in the assay on HCT116 WT cells, 4800 nM. The Ki at PRMT5/MEP50 worked out at 0.01 nM.

As for `Cc1cc([C@@H](C)N(Cc2ccc(C(F)(F)F)cn2)C(=O)c2ccc3nc(N)c(C)cc3c2)no1` [Example 392, 2-amino-3-methyl-N-((1R)-1-(5-methyl-1,2-oxazol-3-yl)ethyl)-N-((5-(trifluoromethyl)-2-pyridinyl)methyl)-6-quinolinecarboxamide], the IC50 was found to be 193 nM in the assay on HCT116 MTAP null cells (HCT116-MTAP null) and 6860 nM with HCT116 WT cells. At PRMT5/MEP50, the inhibition constant Ki worked out at 0.5 nM.

Regarding `Cc1cc2cc(C(=O)N(Cc3ncccc3F)[C@H](C)c3ccc(C(F)(F)F)cn3)ccc2nc1N` [Example 393, 2-amino-N-((3-fluoro-2-pyridinyl)methyl)-3-methyl-N-((1R)-1-(5-(trifluoromethyl)-2-pyridinyl)ethyl)-6-quinolinecarboxamide], the IC50 with HCT116 MTAP null cells (HCT116-MTAP null) was 342 nM; with HCT116 WT cells, 8210 nM. Moreover, the inhibition constant (Ki) on PRMT5/MEP50 came out at 0.22 nM.

Regarding `Cc1cc2cc(C(=O)N(Cc3ccc(Br)cn3)[C@H](C)c3ncccc3Cl)ccc2nc1N` [Example 394, 2-amino-N-((5-bromo-2-pyridinyl)methyl)-N-((1R)-1-(3-chloro-2-pyridinyl)ethyl)-3-methyl-6-quinolinecarboxamide], the results for the IC50 in the assay on HCT116 MTAP null cells (HCT116-MTAP null) and in the assay on HCT116 WT cells were 384 nM and over 10000 nM, respectively. Moreover, the Ki at PRMT5/MEP50 stood at 0.12 nM.

Consider `Cc1cc2cc(C(=O)N(Cc3ccc(C(F)(F)F)nn3)[C@@H]3CCc4cccnc43)ccc2nc1N` [Example 395, 2-amino-N-((7R)-6,7-dihydro-5H-cyclopenta[b]pyridin-7-yl)-3-methyl-N-((6-(trifluoromethyl)-3-pyridazinyl)methyl)-6-quinolinecarboxamide], for which the IC50 in the assay on HCT116 MTAP null cells (HCT116-MTAP null) turned out to be 82 nM; with HCT116 WT cells it was 2370 nM. The inhibitory constant (Ki) at PRMT5/MEP50 was 0.16 nM.

Consider `Cc1cc2cc(C(=O)N(Cc3ncc(C(F)(F)F)cc3Cl)[C@H](C)c3ncccc3F)ccc2nc1N` [Example 396, 2-amino-N-((3-chloro-5-(trifluoromethyl)-2-pyridinyl)methyl)-N-((1R)-1-(3-fluoro-2-pyridinyl)ethyl)-3-methyl-6-quinolinecarboxamide], for which the half-inhibitory concentration (IC50) with HCT116 MTAP null cells (HCT116-MTAP null) is 793 nM; in the assay with HCT116 WT cells, over 10000 nM. Moreover, the inhibition constant Ki on PRMT5/MEP50 turned out to be 0.27 nM.

Turning to `C[C@H](c1ncccc1F)N(Cc1ccc(C(F)(F)F)nn1)C(=O)c1cnc2nc(N)c(Br)cc2c1` [Example 397, 7-amino-6-bromo-N-((1R)-1-(3-fluoro-2-pyridinyl)ethyl)-N-((6-(trifluoromethyl)-3-pyridazinyl)methyl)-1,8-naphthyridine-3-carboxamide], the results for the concentration for half-maximal inhibition (IC50) with HCT116 MTAP null cells (HCT116-MTAP null) and in the assay with HCT116 WT cells were 286 nM and 7960 nM, respectively. For the same compound, the Ki on PRMT5/MEP50 was 0.23 nM.

Turning to `Cc1cc2cc(C(=O)N(Cc3ccc(Br)cn3)[C@H](C)c3ncccc3F)ccc2nc1N` [Example 400, 2-amino-N-((5-bromo-2-pyridinyl)methyl)-N-((1R)-1-(3-fluoro-2-pyridinyl)ethyl)-3-methyl-6-quinolinecarboxamide], the IC50 worked out at 41 nM in the assay with HCT116 MTAP null cells (HCT116-MTAP null) and 960 nM with HCT116 WT cells. The Ki on PRMT5/MEP50 was 0.05 nM.

Consider `Cc1cc2cc(C(=O)N(Cc3ccc(Cl)cn3)[C@H](C)c3ncccc3F)ccc2nc1N` [Example 401, 2-amino-N-((5-chloro-2-pyridinyl)methyl)-N-((1R)-1-(3-fluoro-2-pyridinyl)ethyl)-3-methyl-6-quinolinecarboxamide], for which the concentration for half-maximal inhibition (IC50) in the assay with HCT116 MTAP null cells (HCT116-MTAP null) amounted to 51 nM; in the assay with HCT116 WT cells, 1570 nM. Moreover, the Ki on PRMT5/MEP50 was 0.08 nM.

`Cc1cc2cc(C(=O)N(Cc3ccc(Br)cn3)[C@H](C)c3ncccn3)ccc2nc1N` [Example 402]: the half-inhibitory concentration (IC50) in the assay on HCT116 MTAP null cells (HCT116-MTAP null) is 15 nM; in the assay on HCT116 WT cells it was 526 nM. Moreover, on PRMT5/MEP50, the inhibition constant Ki was determined as 0.04 nM.

As to `COC(=O)c1ccc(CN(C(=O)c2ccc3nc(N)c(C)cc3c2)[C@H](C)c2ncccc2F)nc1` [Example 403, methyl 6-((((2-amino-3-methyl-6-quinolinyl)carbonyl)((1R)-1-(3-fluoro-2-pyridinyl)ethyl)amino)methyl)-3-pyridinecarboxylate], the IC50 in the assay on HCT116 MTAP null cells (HCT116-MTAP null) was 263 nM; in the assay with HCT116 WT cells, 8880 nM. In addition, the Ki at PRMT5/MEP50 worked out at 0.55 nM.

Regarding `Cc1cc2cc(C(=O)N(Cc3ccc(C#N)cn3)[C@H](C)c3ncccn3)c(F)cc2nc1N` [Example 404, 2-amino-N-((5-cyano-2-pyridinyl)methyl)-7-fluoro-3-methyl-N-((1R)-1-(2-pyrimidinyl)ethyl)-6-quinolinecarboxamide], the half-maximal inhibitory concentration (IC50) in the assay on HCT116 MTAP null cells (HCT116-MTAP null) came to 90 nM; in the assay with HCT116 WT cells it was 3160 nM. Moreover, at PRMT5/MEP50, the Ki was 1.68 nM.

In the case of `Cc1cc2cc(C(=O)N(Cc3ccc(C#N)cn3)[C@H](C)c3ccccc3F)ccc2nc1N` [Example 405, 2-amino-N-((5-cyano-2-pyridinyl)methyl)-N-((1R)-1-(2-fluorophenyl)ethyl)-3-methyl-6-quinolinecarboxamide], the values for the IC50 in the assay on HCT116 MTAP null cells (HCT116-MTAP null) and in the assay on HCT116 WT cells were 54 nM and 1040 nM, respectively. In addition, the inhibition constant Ki on PRMT5/MEP50 was 0.03 nM.

Regarding `C[C@H](c1ncccn1)N(Cc1ccc(C#N)cn1)C(=O)c1cnc2nc(N)c(Br)cc2c1` [Example 406, 7-amino-6-bromo-N-((5-cyano-2-pyridinyl)methyl)-N-((1R)-1-(2-pyrimidinyl)ethyl)-1,8-naphthyridine-3-carboxamide], the IC50 in the assay on HCT116 MTAP null cells (HCT116-MTAP null) was 682 nM; in the assay on HCT116 WT cells it was over 10000 nM. The Ki on PRMT5/MEP50 was 0.47 nM.

What is called IC50 is the midpoint of a concentration-inhibition curve. By Ki is commonly meant the dissociation constant of the complex between target and ligand, obtained from inhibition or displacement.
